Assay results from patent US9271978B2 (Zenith Epigenetics Corp., priority 2012, dated 2016).

How the values were obtained:
[1] = target: T1, Brd4 bromodomain 1 (BRD4(1)) (Homo sapiens, UniProt O60885); assay: Inhibition of tetra-acetylated histone H4 binding to Brd4 bromodomain 1 (TR-FRET); design: key: Active: Compounds with an IC50 value less than 30 μM were deemed to be active.; Not Active: Compounds with an IC50 value less than 30 μM were deemed to be active; details: tetra-acetylated histone H4 peptide, active = IC50 <30 μM
T1 construct: Illustrative results with the first bromodomain of Brd4; made in house; host or cells: E. coli BL21 (DE3)
How it was run: (§1)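 N-terminally His-tagged bromodomains (200 nM), expressed in E. coli, were incubated with biotinylated tetra-acetylated histone H4 peptide (25-50 nM), Eu-cryptate streptavidin and XL665 anti-His antibody in HEPES pH 7.4 buffer with KF, 0.2% DMSO, 2 h at room temperature. Inhibition read as decreased 665/620 nm TR-FRET; IC50 from dose-response curves.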

[2] = system: human AML MV-4-11 (CRL-9591) cells; assay: Inhibition of cell proliferation in MV4-11 cells; format: cell-based; design: key: Active: Compounds with an IC50 value less than 30 μM were deemed to be active.; Not Active: Compounds with an IC50 value less than 30 μM were deemed to be active; details: human AML MV-4-11 cells, 72 h; active = IC50 <30 μM
How it was run: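 Exponentially growing MV-4-11 cells (5×10^4/well) were treated immediately with two-fold dilutions of compound from 30 μM to 0.2 μM, in triplicate, for 72 h at 37° C, 5% CO2. Viability was measured by MTS absorbance at 490 nm after 3–4 h. Proliferation relative to DMSO after blank correction gave IC50.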

hIL-6 mRNA = assay: Inhibition of hIL-6 mRNA transcription in U937 cells; format: cell-based, human; design: key: Active: Compounds with an IC50 value less than 30 μM were deemed to be active.; Not Active: Compounds with an IC50 value less than 30 μM were deemed to be active; details: LPS stimulation, active = IC50 <30 μM
How it was run: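 U937 cells differentiated 3 days with 60 ng/mL PMA, pretreated 1 h with compound, then stimulated with 1 ug/mL E. coli LPS for 3 h at 37° C. hIL-6 mRNA quantified by one-step qRT-PCR, Ct normalized to internal control, expressed as fold induction relative to control.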

ApoA-I mRNA = assay: Up-regulation of hApoA-1 mRNA transcription in Huh7 cells; format: cell-based, human; design: key: Active: Compounds with an EC170 value less than 30 μM were deemed to be active; details: 48 h treatment, ApoA-I mRNA by real-time PCR, Active = EC170 less than 30 μM
How it was run: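 Huh7 cells treated with compound for 48 h. ApoA-I mRNA was then quantified in captured mRNA by one-step real-time RT-PCR. Fold induction calculated from Ct values relative to the matching DMSO control; EC170 is the concentration for 170% of control expression.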

c-myc = assay: Inhibition of c-myc expression in MV4-11 cells (mRNA, real-time PCR); format: cell-based; design: key: Active: Compounds with an IC50 value less than 30 μM were deemed to be active.; Not Active: Compounds with an IC50 value less than 30 μM were deemed to be active; details: Human AML MV4-11 cells, 3 h incubation
How it was run: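 MV4-11 cells (2.5×10^4) treated with compound or 0.1% DMSO for 3 h at 37 °C. c-myc mRNA measured by RT real-time PCR duplexed with cyclophilin. IC50 from dose–response curve.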

[3] = target: T2, second bromodomain of Brd2 (BRD2(2)) (Homo sapiens, UniProt P25440); assay: Inhibition of tetra-acetylated histone H4 binding to Brd2 bromodomain 2 (TR-FRET); design: key: Active: Compounds with an IC50 value less than 30 μM were deemed to be active.; Not Active: Compounds with an IC50 value less than 30 μM were deemed to be active; details: tetra-acetylated histone H4 peptide, active = IC50 <30 μM
T2 construct: made in house; host or cells: E. coli BL21 (DE3)
How it was run: as §1

T2 sequence (P25440 344-453 limits assumed): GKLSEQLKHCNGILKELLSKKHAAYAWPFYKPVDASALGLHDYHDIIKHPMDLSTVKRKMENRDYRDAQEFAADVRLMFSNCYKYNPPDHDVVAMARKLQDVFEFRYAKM

FRET activity (IC50 <30 μM) BRD4(1) [1]	Cell Proliferation activity (IC50 <30 μM) [2]	IL-6 activity (IC50 <30 μM) (hIL-6 mRNA)	c-myc activity (IC50 <30 μM) (c-myc)	FRET activity (IC50 <30 μM) BRD2(2) [3]	SMILES	ApoA-1 activity (EC170 <30 μM) (ApoA-I mRNA)
Active	Active	Active	Active	Active	Cc1noc(C)c1-c1ccc(=O)n(Cc2ccc(OC(F)(F)F)cc2)c1 [Example 5, 5-(3,5-Dimethylisoxazol-4-yl)-1-(4-(trifluoromethoxy)benzyl)pyridin-2(1H)-one]	Active
Active	Not Active	Active	Not Active	Active	Cc1noc(C)c1-c1ccc(=O)n(Cc2ccc(C(N)=O)cc2)c1 [Example 13, 4-((5-(3,5-Dimethylisoxazol-4-yl)-2-oxopyridin-1(2H)-yl)methyl)benzamide]	Active
Active	Active	Active	Active	Active	Cc1noc(C)c1-c1ccc(=O)n(Cc2cccc3cccnc23)c1 [Example 47, 5-(3,5-Dimethylisoxazol-4-yl)-1-(quinolin-8-ylmethyl)pyridin-2(1H)-one]	Active
Active	Active	Active	Active	Active	Cc1noc(C)c1-c1ccc(=O)n(Cc2cccc(C(F)F)c2)c1 [Example 50, 1-(3-(Difluoromethyl)benzyl)-5-(3,5-dimethylisoxazol-4-yl)pyridin-2(1H)-one]	Active

The remaining lines, values behind:

SMILES	FRET activity (IC50 <30 μM) BRD4(1) [1]	Cell Proliferation activity (IC50 <30 μM) [2]	IL-6 activity (IC50 <30 μM) (hIL-6 mRNA)	c-myc activity (IC50 <30 μM) (c-myc)	FRET activity (IC50 <30 μM) BRD2(2) [3]	ApoA-1 activity (EC170 <30 μM) (ApoA-I mRNA)
Cc1noc(C)c1-c1ccc(=O)n(Cc2ccccc2)n1 [Example 14, 2-Benzyl-6-(3,5-dimethylisoxazol-4-yl)pyridazin-3(2H)-one]	Active	Active	Active	Not Active	Active	Active
COc1cc(-c2ccc(=O)n(Cc3cccc(NC(C)=O)c3)n2)cc(OC)c1OC [Example 17, N-(3-((6-Oxo-3-(3,4,5-trimethoxyphenyl)pyridazin-1(6H)-yl)methyl)phenyl)acetamide]	Active	Not Active	Active	Active	Active	Active
Cc1noc(C)c1-c1ccc(=O)n(C(C)c2ccccc2)n1 (stereo not drawn) [Example 19, 6-(3,5-Dimethylisoxazol-4-yl)-2-(1-phenylethyl)pyridazin-3(2H)-one]	Active	Active	Active	Active	Active	Active
CCC(c1ccccc1)n1cc(-c2c(C)noc2C)ccc1=O (stereo not drawn) [Example 43, 5-(3,5-Dimethylisoxazol-4-yl)-1-(1-phenylpropyl)pyridin-2(1H)-one]	Active	Active	Active	Active	Active	Active
Cc1noc(C)c1-c1ccc(=O)n(CC2CCC2)c1 [Example 49, 1-(Cyclobutylmethyl)-5-(3,5-dimethylisoxazol-4-yl)pyridin-2(1H)-one]	Active	Active	Active	Active	Active	Active
